Measurements reported in paper PMC4949444 (Scientific Reports, 2016).

What was measured:
HiB5 cells [1] = test: HiB5 neural progenitor cell viability (MTT); assay type: cell-based
Procedure: Figure 3 Prosurvival effect of VCE-003.2 in hippocampal neural progenitor HiB5 cells. (a,b) HiB5 cells in proliferative and differentiation conditions respectively were incubated with increasing concentrations of VCE-003.2 and cell viability was assessed using the MTT test after 48 h. (c) Cell viability and ERK1/2 phosphorylation status (activation) was determined in VCE-003.2-treated cells in the absence or presence of GW9662 (5 μM). (d) VCE-003.2 time-dependent regulation of the ERK, Akt and mTORC1 signaling pathways were determined by incubation with anti-phospho-ERK, phospho-Akt and phospho-S6 antibodies. Loading control was performed with α-tubulin antibody. Representative western blots and densitometry quantification of three independent experiments are shown. Values are expressed as means ± S.D. *p < 0.05; **p < 0.01 vs. Vehicle; ^#p < 0.05 vs. VCE-003.2.
The HiB5 hippocampal progenitor cell line (kindly provided by Prof. Z. Kokaia, Lund Stem Cell Center, Sweden) was grown as described[46] in DMEM supplemented with 2 mM glutamine, 1% penicillin/streptomycin and 10% (v/v) fetal calf serum (FCS; Lonza, Switzerland). HiB5 cell cultures were incubated in 5% CO2 at 33 °C, the proliferation-permissive temperature of the oncogenic tsA58 allele of the SV40 large T antigen. Incubation at 37 °C loss of proliferative capacity and neural differentiation. Cell viability was determined after 24 h using the 3-[4,5-dimethylthiazol-2-yl]-2,5-diphenyltetrazolium bromide (MTT) […]. Immortalized mouse striatal STHdh cells (kindly provided by S. Gines, U. Barcelona, Spain) were cultured as described. Cell were transiently transfected with 10 μg doxycycline-inducible CFP-huntingtin-94Q using Amaxa´s Nucleofector following the instructions of the manufacturer (Lonza). In addition STHdh^Q7/Q7 and STHdh^Q111/Q111 expressing endogenous levels of full-length huntingtin with 7 glutamines or 111 glutamines in the protein N-terminal domain, respectively, were used. […]

HiB5 cells [2] = test: Quinolinic acid-induced cell death and apoptosis in HiB5 cells; assay type: cell-based
Procedure: Figure 4 In vitro neuroprotective action of VCE-003.2. (a) HiB5 cells were treated with quinolinic acid (QA; 2,5 mM) in the presence or the absence of VCE-003.2 (50 and 250 nM) and cell viability was determined after 24 h by the MTT assay. (b) QA-induced apoptosis measured by cleaved caspase 3 immunostaining (upper panel) of differentiating HiB5 cells was quantified in the presence or absence of VCE-003.2 (250 nM). Cell counts were referred to total cell nuclei counterstained with DAPI and c-caspase3^+ cell quantification is shown in the lower panel. […]. (d) Aggregation of mut-Htt was assessed by fluorescence microscopy in immortalized striatal STHdh transfected cells with a CFP-tagged expression vector of mutant huntingtin (mut-Htt) and counterstained with fluorescent phalloidin (upper panel). […]. Results are representative of three independent experiments. Values are expressed as means ± S. D. *p < 0.05 and ***p < 0.001 vs. Vehicle; ^#p < 0.05 ^##p < 0.01 vs. QA. […]
The HiB5 hippocampal progenitor cell line (kindly provided by Prof. Z. Kokaia, Lund Stem Cell Center, Sweden) was grown as described[46] in DMEM supplemented with 2 mM glutamine, 1% penicillin/streptomycin and 10% (v/v) fetal calf serum (FCS; Lonza, Switzerland). […] Cell viability was determined after 24 h using the 3-[4,5-dimethylthiazol-2-yl]-2,5-diphenyltetrazolium bromide (MTT) tesresults int. […]

## CCCCCC1=C(NCC)C(=O)C(C/C=C(\C)CCC=C(C)C)=C(O)C1=O [VCE-003.2]
HiB5 cells [1]; HiB5, 50 nM to 50 μM, MTT
  cell viability, proliferative conditions: not toxic even at the highest concentrations employed
HiB5 cells [1]; HiB5, differentiation conditions, increasing concentrations, MTT
  cell viability during neuronal differentiation: exerted a prosurvival activity at lower concentrations, while at high concentrations it was toxic and reduced cell viability
HiB5 cells [1]; VCE-003.2 250 nM + GW9662 5 μM
  prosurvival action in presence of PPARγ antagonist: prevented
HiB5 cells [2]; HiB5, QA 2,5 mM, VCE-003.2 50 and 250 nM, 24 h MTT
  QA-induced NP cell death: fully prevented
HiB5 cells [2]; differentiating HiB5, VCE-003.2 250 nM
  QA-induced apoptosis (cleaved caspase 3): significantly inhibited
